Reference: US5914339A, “Substituted 1,3-benzodioxoles” (American Home Products Corporation, priority 1997, dated 1999)
Structures can show the parent of a compound that is named as a salt.

Each molecule was assayed against human β2 adrenergic receptor (Homo sapiens, UniProt P07550) (assay: cell-based). Conditions: not given.
Protocol: The activity of the test compounds on human β-adrenergic receptors was determined with Chinese hamster ovary (CHO) cells transfected with human β2, or β1 adrenergic receptors. Agonist activity is indicated by increased cAMP levels in the CHO cells. Selectivity of the test compounds for the β3 receptor was assessed by comparison with results in β2 and β1 adrenergic receptor transfected cells.
1). Chinese hamster ovary (CHO) cells transfected with human β2, or β1 adrenergic receptors were used in the assay.
2). Cells were grown to confluent conditions in 24 well plates.
3). Drugs were dissolved in DMSO at a concentration of 10 μM.
4). Cells were incubated with drug at 10 nM concentration for 10 min at 37° C.
5). Cell cAMP concentrations were assayed using a scintillation proximity assay kit from Amersham Corp., Chicago, Ill.
6). Activities for the test compounds are expressed as a percentage of the isoproterenol response.
Production of the CHO cells transfected with human β2, or β1 adrenergic receptors, and compound test procedures utilizing the CHO cells, are described by Emorine et al. in their article "Molecular Characterization of the Human Beta3 -Adrenergic Receptor", Science 1989, 245(8), 1118-1121 and by Muzzin et al. in the article "An Adipose Tissue-Specific Beta3 -Adrenergic Receptor", J. Biol. Chem.1991, 266, 24053-24058.
^a Human β receptors expressed in Chinese hamster ovary cells,
compounds tested at 10 nM, results expressed as % of isoproterenol
activity (increase in cAMP) at 10 μM. EC50 (μM) values
determined for selected compounds.

Chain of human β2 adrenergic receptor (P07550 whole entry): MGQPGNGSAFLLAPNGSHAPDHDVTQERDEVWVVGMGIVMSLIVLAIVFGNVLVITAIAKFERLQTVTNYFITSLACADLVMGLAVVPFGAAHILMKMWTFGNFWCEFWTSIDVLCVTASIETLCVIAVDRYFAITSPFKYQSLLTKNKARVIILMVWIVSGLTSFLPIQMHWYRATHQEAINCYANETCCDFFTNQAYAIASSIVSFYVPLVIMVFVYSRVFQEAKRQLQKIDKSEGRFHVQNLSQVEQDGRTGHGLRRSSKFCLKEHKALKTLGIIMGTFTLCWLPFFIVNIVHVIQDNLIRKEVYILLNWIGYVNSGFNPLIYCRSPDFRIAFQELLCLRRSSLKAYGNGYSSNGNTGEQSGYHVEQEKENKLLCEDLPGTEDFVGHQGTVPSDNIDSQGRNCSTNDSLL

SMILES | EC50
CC(Cc1ccc2c(c1)OC(C(=O)O)(C(=O)OCC1CC1)O2)NCC(O)c1cccc(Cl)c1 (stereo not drawn) [Example 69, 5-{2-[2-(3-Chloro-phenyl)-2-hydroxy-ethylamino]-propyl}-benzo[1,3]dioxole-2,2-dicarboxylic acid cyclopropylmethyl ester] | 79 nM

Same assay, conditions: 10 min; compounds tested at 10 nM, isoproterenol at 10 μM; CHO cells, 10 min at 37° C; read-out: β2: % of isoproterenol activity (increase in cAMP)

SMILES | activation at 0.01 µM
CC(C)COCCOC(=O)C1(C(=O)OCCOCC(C)C)Oc2ccc(CC(C)NCC(O)c3cccc(Cl)c3)cc2O1 (stereo not drawn) [Example 8, 5-{2-[2-(3-Chloro-phenyl)-2-hydroxy-ethylamino]-propyl}-benzo[1,3]dioxole-2,2-dicarboxylic acid bis-(2-isobutoxy-ethyl) ester] | 1%
CCCOC(=O)COC(=O)C1(C(=O)OCC(=O)OCCC)Oc2ccc(CC(C)NCC(O)c3cccc(Cl)c3)cc2O1 (stereo not drawn) [Example 25, 5-{2-[2-(3-Chloro-phenyl)-2-hydroxy-ethylamino]-propyl}-benzo[1,3]dioxole-2,2-dicarboxylic acid bis-propoxycarbonylmethyl ester] | 6%
CCCCCCCCCCCCOC(=O)C1(C(=O)OCCCCCCCCCCCC)Oc2ccc(CC(C)NCC(O)c3cccc(Cl)c3)cc2O1 (stereo not drawn) [Example 20, 5-{2-[2-(3-Chloro-phenyl)-2-hydroxy-ethylamino]-propyl}-benzo[1,3]dioxole-2,2-dicarboxylic acid didodecyl ester] | 0%
CC(Cc1ccc2c(c1)OC(C(=O)OCC(=O)OC(C)C)(C(=O)OCC(=O)OC(C)C)O2)NCC(O)c1cccc(Cl)c1 (stereo not drawn) [Example 27, 5-{2-[2-(3-Chloro-phenyl)-2-hydroxy-ethylamino]-propyl}-benzo[1,3]dioxole-2,2-dicarboxylic acid bis-isopropoxycarbonylmethyl ester] | 5%

More lines, now with the values ahead:

activation at 0.01 µM | SMILES
5% | C[C@H](Cc1ccc2c(c1)OC(C(=O)OCC13CC4CC(CC(C4)C1)C3)(C(=O)OCC13CC4CC(CC(C4)C1)C3)O2)NC[C@H](O)c1cccc(Cl)c1 (stereo partly drawn) [Example 77, 5-{(2R)-2-[(2R)-2-(3-Chloro-phenyl)-2-hydroxy-ethylamino]-propyl}-benzo[1,3]dioxole-2,2-dicarboxylic acid bis-adamantan-1-ylmethyl ester]
16% | CCCCCCC(=O)OCOC(=O)C1(C(=O)OCOC(=O)CCCCCC)Oc2ccc(CC(C)NCC(O)c3cccc(Cl)c3)cc2O1 (stereo not drawn) [Example 46, 5-{2-[2-(3-Chloro-phenyl)-2-hydroxyethylamino]propyl}benzo[1,3] dioxole-2,2-dicarboxylic acid bis-heptanoyloxymethyl ester]
2% | CC(Cc1ccc2c(c1)OC(C(=O)OC(C)OC(=O)C(C)(C)C)(C(=O)OC(C)OC(=O)C(C)(C)C)O2)NCC(O)c1cccc(Cl)c1 (stereo not drawn) [Example 52]
3% | CC(Cc1ccc2c(c1)OC(C(=O)OCCCC1CCCC1)(C(=O)OCCCC1CCCC1)O2)NCC(O)c1cccc(Cl)c1 (stereo not drawn) [Example 37, 5-{2-[2-(3-Chloro-phenyl)-2-hydroxy-ethylamino]-propyl}-benzo[1,3]dioxole-2,2-dicarboxylic acid bis-(3-cyclopentyl-propyl) ester]
2% | CC(Cc1ccc2c(c1)OC(C(=O)OCCC1CCCCC1)(C(=O)OCCC1CCCCC1)O2)NCC(O)c1cccc(Cl)c1 (stereo not drawn) [Example 36, 5-{2-[2-(3-Chloro-phenyl)-2-hydroxy-ethylamino]-propyl}-benzo[1,3]dioxole-2,2-dicarboxylic acid bis-(2-cyclohexyl-ethyl) ester]
8% | CCC(C)(C)C(=O)OCOC(=O)C1(C(=O)OCOC(=O)C(C)(C)CC)Oc2ccc(CC(C)NCC(O)c3cccc(Cl)c3)cc2O1 (stereo not drawn) [Example 58, 5-{2-[2-(3-Chloro-phenyl)-2-hydroxyethylamino]propyl}benzo[1,3] dioxole-2,2-dicarboxylic acid bis-(2,2-dimethyl-butyryloxymethyl) ester]
0% | CC(Cc1ccc2c(c1)OC(C(=O)OCOC(=O)C1CCCCC1)(C(=O)OCOC(=O)C1CCCCC1)O2)NCC(O)c1cccc(Cl)c1 (stereo not drawn) [Example 50, 5-{2-[2-(3-Chloro-phenyl)-2-hydroxyethylamino]propyl}benzo[1,3] dioxole-2,2-dicarboxylic acid bis-cyclohexanecarbonyloxymethyl ester]
0% | CC(Cc1ccc2c(c1)OC(C(=O)OC(C)OC(=O)c1ccccc1)(C(=O)OC(C)OC(=O)c1ccccc1)O2)NCC(O)c1cccc(Cl)c1 (stereo not drawn) [Example 57, 5-{2-[2-(3-Chloro-phenyl)-2-hydroxyethylamino]propyl}benzo[1,3] dioxole-2,2-dicarboxylic acid bis-(benzoyloxy-ethyl) ester]
3% | C[C@H](Cc1ccc2c(c1)OC(C(=O)OC/C=C\COCc1ccccc1)(C(=O)OC/C=C\COCc1ccccc1)O2)NC[C@H](O)c1cccc(Cl)c1 [Example 101, 5-{(2R)-2-[(2R)-2-(3-Chloro-phenyl)-2-hydroxy-ethylamino]-propyl}-benzo[1,3]dioxole-2,2-dicarboxylic acid bis-(4-benzyloxy-but-2-enyl)ester]
7% | C=CCOC(=O)C1(C(=O)OCC=C)Oc2ccc(C[C@@H](C)NC[C@H](O)c3cccc(Cl)c3)cc2O1 [Example 98, 5-{(2R)-2-[(2R)-2-(3-Chloro-phenyl)-2-hydroxy-ethylamino]-propyl}-benzo[1,3]dioxole-2,2-dicarboxylic acid diallyl ester]
2% | CCOC(=O)C(C)OC(=O)C1(C(=O)OC(C)C(=O)OCC)Oc2ccc(CC(C)NCC(O)c3cccc(Cl)c3)cc2O1 (stereo not drawn) [Example 29, 5-{2-[2-(3-Chloro-phenyl)-2-hydroxy-ethylamino]-propyl}-benzo[1,3]dioxole-2,2-dicarboxylic acid bis-(1-ethoxycarbonyl-ethyl) ester]
8% | CC(Cc1ccc2c(c1)OC(C(=O)OCOC(=O)c1ccccc1)(C(=O)OCOC(=O)c1ccccc1)O2)NCC(O)c1cccc(Cl)c1 (stereo not drawn) [Example 56, 5-{2-[2-(3-Chloro-phenyl)-2-hydroxy-ethylamino]propyl}benzo[1,3]dioxole-2,2-dicarboxylic acid bis-benzoyloxymethyl ester]
22% | CC(Cc1ccc2c(c1)OC(C(=O)OCCC1CCCC1)(C(=O)OCCC1CCCC1)O2)NCC(O)c1cccc(Cl)c1 (stereo not drawn) [Example 41, 5-{2-[2-(3-Chloro-phenyl)-2-hydroxy-ethylamino]-propyl}-benzo[1,3]dioxole-2,2-dicarboxylic acid bis-(2-cyclopentyl-ethyl) ester]
4% | CC(C)CCCOC(=O)C1(C(=O)OCCCC(C)C)Oc2ccc(CC(C)NCC(O)c3cccc(Cl)c3)cc2O1 (stereo not drawn) [Example 35, 5-{2-[2-(3-Chloro-phenyl)-2-hydroxy-ethylamino]-propyl}-benzo[1,3]dioxole-2,2-dicarboxylic acid bis-(4-methyl-pentyl) ester]

Same assay, conditions: CHO, 10 min, read-out: β2: % of isoproterenol activity (increase in cAMP)

SMILES | activation at 0.01 µM
CC(Cc1ccc2c(c1)OC(C(=O)OCc1ccccc1)(C(=O)OCc1ccccc1)O2)NCC(O)c1cccc(Cl)c1 (stereo not drawn) [Example 9, 5-{2-[2-(3-Chloro-phenyl)-2-hydroxy-ethylamino]-propyl}-benzo[1,3]dioxole-2,2-dicarboxylic acid bis-(benzyl) ester hydrochloride salt] | 16%
CC(Cc1ccc2c(c1)OC(C(=O)OC1CCCCC1)(C(=O)OC1CCCCC1)O2)NCC(O)c1cccc(Cl)c1 (stereo not drawn) [Example 10, 5-{2-[2-(3-Chloro-phenyl)-2-hydroxy-ethylamino]-propyl}-benzo[1,3]dioxole-2,2-dicarboxylic acid bis-(cyclohexyl) ester hydrochloride salt] | 0%
CCOCCOC(=O)C1(C(=O)OCCOCC)Oc2ccc(CC(C)NCC(O)c3cccc(Cl)c3)cc2O1 (stereo not drawn) [Example 5, 5-{2-[2-(3-Chloro-phenyl)-2-hydroxy-ethylamino]-propyl}-benzo[1,3]dioxole-2,2-dicarboxylic acid bis-(2-ethoxy-ethyl) ester hydrochloride salt] | 4%
CC(Cc1ccc2c(c1)OC(C(=O)OC[Si](C)(C)C)(C(=O)OC[Si](C)(C)C)O2)NCC(O)c1cccc(Cl)c1 (stereo not drawn) [Example 30, 5-{2-[2-(3-Chloro-phenyl)-2-hydroxy-ethylamino]-propyl}-benzo[1,3]dioxole-2,2-dicarboxylic acid bis-trimethylsilanylmethyl ester] | 0%
Cc1cccc(CCOC(=O)C2(C(=O)OCCc3cccc(C)c3)Oc3ccc(C[C@@H](C)NC[C@H](O)c4cccc(Cl)c4)cc3O2)c1 [Example 97, 5-{(2R)-2-[(2R)-2-(3-Chloro-phenyl)-2-hydroxy-ethylamino]-propyl}-benzo[1,3]dioxole-2,2-dicarboxylic acid bis-(2-m-tolyl-ethyl) ester hydrochloride salt] | 4%
